Patent US10047081B2, “BACE1 inhibitors” (Hoffmann-La Roche Inc., priority 2015, dated 2018)
pIC50: −log10 of the molar value.

Tests used:
[1] = molecular target: T1, BACE1 (Homo sapiens, UniProt P56817); experiment: Cellular Aβ-lowering assay (Abeta 40 AlphaLISA, HEK293 APP cells); assay type: cell-based; settings: 18-20 hrs incubation, Aβ 40 in culture supernatant, read-out: BACE1 cell act. Aβ40 IC50
T1 construct: endogenous in cells; host or cells: HEK293 APP cells
How it was run: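 HEK293 APP cells were treated with compound for 18-20 hrs at 37° C in 1% DMSO. Secreted Aβ40 in the supernatant was measured by AlphaLISA at 615 nm. Values are % of the DMSO-only signal, fit to give IC50.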

[2] = tested on: Aβ40 in brain; experiment: Lowering of Aβ40 in brain of wild-type mice; assay type: in vivo; settings: brain Aβ40 as % of control (vehicle group), 30 mg/kg per os, mouse, after 4 h
Procedure: Lowering of Aβ40 in Brain of Wild-Type Mice:
Animals and Housing Conditions.
Animals were maintained in a 12/12 h light/dark cycle, with lights starting at 6 a.m., and experiments were conducted during the light phase. Animal housing and experimental procedures were in line with ethical and legal guidelines and were authorized by local veterinary authorities.
Female C57B1/6J mice were treated with a dose of 30 mg/kg of the compounds, 3-4 animals per treatment group. The test compound was dissolved in 5% EtOH, 10% Solutol, and was applied per os at 10 mL/kg. After 4 h, the animals were sacrificed and brain and plasma were collected. The brain was cut into halves and immediately frozen on dry ice. Brain was used for measurement of Aβ40 and plasma was used for determination of compound exposure. […] Brain tissue was homogenized in 2% DEA buffer in a Roche MagnaLyser (20″, 4000 rpm) and subsequently centrifuged for 1 h at 100000 g. DEA was reduced to 0.2% in 50 mM NaCl and one-half of the DEA lysate was passed over an Oasis Solid phase extraction plate (Waters; cat. no. 186000679), which had been activated with MeOH and equilibrated in dH2O (1 mL each). After washes in 10% and 30% MeOH (1 mL each), the Aβ-peptides were eluted in 0.8 mL of 2% NH4OH in 90% MeOH. The eluate was dried over a N2 flow, and the dried sample was reconstituted in 30 μL of AlphaLISA assay buffer. Aβ40 was determined by an AlphaLISA assay (Perkin-Elmer). In a white 96-well, half area microplate (Perkin-Elmer cat. no. 6005561), 20 μL of the reconstituted sample were mixed with 5 μL of biotinylated BAP-24 (specific for C-terminus of Aβ40) (Brockhaus, M.; Grunberg, J.; Rohrig, S.; Loetscher, H.; Wittenburg, N.; Baumeister, R.; Jacobsen, H.; Haass, C. Caspasemediated cleavage is not required for the activity of presenilins in amyloidogenesis and NOTCH signaling. NeuroReport 1998, 9, 1481-1486) stock=4.4 mg/mL, f.c.5.5 μg/mL), and 5 μL 252Q6 acceptor beads (252Q6 antibody, Invitrogen AMB0062) had been previously conjugated with AlphaLISA Acceptor beads (Perkin-Elmer cat. no. 6772002); final dilution 1:500). The mix was incubated for 1 h at RT in the dark. Then 20 μL of Streptavin-coated Donor Beads (Perkin-Elmer cat. no. 6760002, final dilution 1:125) were added and this final mix was incubated in the dark for another 30 min at RT before RFU was measured in an AlphaScreen Reader (Perkin-Elmer Envision 2104). The value obtained for Ap40 in the treated animals was related to the value in the vehicle group and is given in %. Alternatively a commercial ELISA was used for Aβ40 determination (Wako ELISA: (“Human/Rat β Amyloid (40) ELISA kit Wako II”; cat nr. 294-64701) following the manufacture's instruction. Also here the Aβ-lowering efficacy was calculated as percentage of the vehicle group.

T1 sequence (P56817 46-501): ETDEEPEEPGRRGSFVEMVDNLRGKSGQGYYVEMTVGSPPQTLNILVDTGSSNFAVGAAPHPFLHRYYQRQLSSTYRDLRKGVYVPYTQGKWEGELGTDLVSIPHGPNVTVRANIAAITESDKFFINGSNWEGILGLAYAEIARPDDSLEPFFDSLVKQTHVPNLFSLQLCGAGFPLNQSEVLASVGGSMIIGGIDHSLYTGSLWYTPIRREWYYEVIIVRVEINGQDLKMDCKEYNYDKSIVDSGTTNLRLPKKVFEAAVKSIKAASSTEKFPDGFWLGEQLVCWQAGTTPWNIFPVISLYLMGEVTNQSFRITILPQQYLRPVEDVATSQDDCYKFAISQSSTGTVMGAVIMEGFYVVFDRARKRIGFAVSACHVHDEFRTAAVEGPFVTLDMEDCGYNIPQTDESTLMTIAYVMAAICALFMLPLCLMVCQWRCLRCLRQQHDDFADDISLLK

pIC50 [1] | Compound | in vivo effect [2]
7.30 | [2H]C([2H])([2H])N=[S@@]1(=O)C[C@@](C)(c2cc(-c3cc(-c4cnc(OC)cn4)no3)ccc2F)N=C(N)C1(C)C [Example 24, (1R,3R)-3-[2-fluoro-5-[3-(5-methoxypyrazin-2-yl)isoxazol-5-yl]phenyl]-3,6,6-rimethyl-1-oxo-1-(trideuteriomethylimino)-2H-1,4-thiazin-5-amine 2,2,2-trifluoroacetate] | A (A = less than 60% of control @ 30 mg/kg mouse)
8.22 | CN=[S@@]1(=O)C[C@@](C)(c2cc(-c3cc(-c4ncc(Cl)cn4)no3)ccc2F)N=C(N)C1(C)C [Example 6, (1R,3R)-5-amino-3-(5-(3-(5-chloropyrimidin-2-yl)isoxazol-5-yl)-2-fluorophenyl)-3,6,6-trimethyl-1-(methylimino)-3,6-dihydro-2H-1,4-thiazine 1-oxide 2,2,2-trifluoroacetate] | A (A = less than 60% of control @ 30 mg/kg mouse)
7.89 | CN=[S@@]1(=O)C[C@@](C)(c2cc(-c3cc(-c4cnc(OCC(F)F)cn4)no3)ccc2F)N=C(N)C1(C)C [Example 5, (1R,3R)-5-amino-3-(5-(3-(5-(2,2-difluoroethoxy)pyrazin-2-yl)isoxazol-5-yl)-2-fluorophenyl)-3,6,6-trimethyl-1-(methylimino)-3,6-dihydro-2H-1,4-thiazine 1-oxide 2,2,2-trifluoroacetate] | A (A = less than 60% of control @ 30 mg/kg mouse)
7.25 | CN=[S@@]1(=O)C[C@@](C)(c2cc(-c3cc(-c4cnc(OC)cn4)no3)ccc2F)N=C(N)C1(C)C [Example 7, (1R,3R)-5-amino-3-(2-fluoro-5-(3-(5-methoxypyrazin-2-yl)isoxazol-5-yl)phenyl)-3,6,6-trimethyl-1-(methylimino)-3,6-dihydro-2H-1,4-thiazine 1-oxide 2,2,2-trifluoroacetate] | B (B = less than 90% of control @ 30 mg/kg mouse)
